Read-outs that look alike come from different tables or passages of the source.
Legend:
[1] = molecular target: T1, STING (Stimulator of Interferon Genes) (Homo sapiens, UniProt Q86WV6, G230A/H232R/R293Q/R71H); experiment: ISG-LUC activation assay (ISRE-Luciferase assay in THP-1 Lucia ISG reporter cells); assay type: cell-based
T1 construct: host or cells: THP-1-Lucia ISG cells (human monocytic line)
From the text: (§1) This has been established using a primary assay involving a human THP-1 cell line carrying an IRF-inducible reporter with 5 copies of the IFN signaling response element. Counter screens, involving alternative reporter constructs, rodent cell-based assays, as well as cGAS and STING knock-out cell lines, are used to eliminate luciferase artifacts and ensure human-rodent cross species reactivity, as well as pathway selectivity. Biochemical assays, involving cGAS enzymatic activity and STING protein binding assays, are used to identify the specific target of identified hits.
(§2) THP-1 Lucia ISG cells were resuspended in low-serum growth media (2% FBS) at a density of 5×10^5 cells/ml and treated with test article or vehicle (DMSO). 50 μL of cells were seeded into each well of a 384-well white greiner plates and incubated for 24 hours. To evaluate expression of the luciferase reporter, 30 μl of Quanti-luc (Invivogen) detection reagent was added to each well and luminescence was read using an Envision plate reader (Perkin Elmer) set with an integration time of 0.1 seconds.

[2] = test system: interferon-stimulated gene signature; experiment: Interferon-stimulated gene signature expression (qPCR); assay type: cell-based, human; conditions: relevant cell types
Method: Wild-type and STING KO THP-1 cells were stimulated with poly(dA:dT), a known activator of both RIG-I and cGAS-dependent signaling cascades, and downstream target gene expression was assessed 48 h later by qPCR (A). Wild-type and STING KO THP-1 cells were stimulated with 2′3′-cGAMP or Cmpd 164 at the indicated doses and activation of type I interferon signaling was assessed by gene expression analysis of IFNB1 (B) and interferon stimulated genes, IFIT3 (C) and CXCL10 (D).
as §1, with “We have established a robust platform for identifying non-nucleotide small molecule STING agonists. This” for “This”, “Biochemical assays, involving cGAS enzymatic activity and STING protein binding assays, are used to identify the specific target of identified hits.” left out
THP-1 cells were resuspended in low-serum growth media at a density of 5×10^5 cells/ml and treated with test article or vehicle (DMSO). […] Gene expression was assessed using Taqman primers and probes listed in Table 4 with the Taqman Universal Mix II (cat. no. 4440038, ThermoFisher) following manufacturer's instructions. […]

[3] = test system: STING knockout cells; experiment: ISRE-Luciferase reporter activity in STING knockout THP-1 cells (counter screen); assay type: cell-based, human
Method: Wild-type and STING KO THP-1 ISRE-Luciferase reporter cells were treated with increasing doses of 2′3′-cGAMP and reporter activity (luminescence) was assessed 48 h after treatment (A). Lack of STING protein expression was confirmed in STING KO THP-1 cells by western blot with gamma-tubulin used as a protein loading control (B). Wild-type and STING KO THP-1 reporter cells were treated with increasing doses of Compound 164 (Cmpd 164) and reporter activity and cell viability were assessed 24 h after treatment (C-D).
We have established a robust platform for identifying non-nucleotide small molecule STING agonists. This has been established using a primary assay involving a human THP-1 cell line carrying an IRF-inducible reporter with 5 copies of the IFN signaling response element. […]
as §2, with “50 μL of cells were seeded into each well of a 384-well white greiner plates and incubated for 24 hours.” left out

[4] = test system: cGAS knockout cells; experiment: Activity in wild-type and cGAS knockout cells (counter screen); assay type: cell-based
From the text: We have established a robust platform for identifying non-nucleotide small molecule STING agonists. This has been established using a primary assay involving a human THP-1 cell line carrying an IRF-inducible reporter with 5 copies of the IFN signaling response element. Counter screens, involving alternative reporter constructs, rodent cell-based assays, as well as cGAS and STING knock-out cell lines, are used to eliminate luciferase artifacts and ensure human-rodent cross species reactivity, as well as pathway selectivity. Biochemical assays, involving cGAS enzymatic activity and STING protein binding assays, are used to identify the specific target of identified hits. […] Further evidence is provided by STING protein thermal shift data. A preliminary medicinal chemistry effort, involving the design, synthesis, and testing of ˜100 analogs within the series, has identified key features of the molecule that are required for activity and has led to the identification of derivatives with ˜10-fold improvements in cell-based potency (by for example modulating the substitution pattern on the aniline ring) and ˜50-fold improvement in plasma stability (by modulating the size of the substituent of the ester).

[5] = test system: human PBMCs; experiment: Type I IFN protein expression in human PBMCs; assay type: cell-based; conditions: compared with 2′-3′ cGAMP
[6] = THP-1 Lucia ISG cells, 24 hours, luciferase reporter, read-out: ISG-LUC activation assay (EC50)

T1 sequence (Q86WV6 whole entry R71H/G230A/H232R/R293Q): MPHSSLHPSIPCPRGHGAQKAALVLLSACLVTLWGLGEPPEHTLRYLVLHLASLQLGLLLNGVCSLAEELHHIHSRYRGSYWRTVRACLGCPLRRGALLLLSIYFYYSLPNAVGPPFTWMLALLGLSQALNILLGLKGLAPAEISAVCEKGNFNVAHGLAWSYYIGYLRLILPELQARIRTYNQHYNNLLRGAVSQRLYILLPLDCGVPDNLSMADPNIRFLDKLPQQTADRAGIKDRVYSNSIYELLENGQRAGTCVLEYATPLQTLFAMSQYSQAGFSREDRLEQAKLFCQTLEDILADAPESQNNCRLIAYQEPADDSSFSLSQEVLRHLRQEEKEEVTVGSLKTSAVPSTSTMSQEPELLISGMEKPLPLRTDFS

SMILES	EC50 [1, 6] [µM]	also measured
O=C(Nc1ccc(Br)cc1C(O)(C(F)(F)F)C(F)(F)F)c1ccc(-n2ccnc2)nn1 [Compound 164]	> 20	EC50 ([1]; primary assay, human THP-1 IRF-inducible reporter, read-out: EC50): ~1 µM; interferon-stimulated gene signature expression [2]: induces interferon-stimulated gene signature expression; activity in STING knockout cells [3]: lack of activity; activity in wild-type and cGAS knockout cells [4]: observed activity; type I IFN protein expression, efficacy [5]: comparable to that observed for 2′-3′ cGAMP
O=C(Nc1ccccc1-c1noc(O)n1)c1ccc(-n2ccnc2)nn1 [Compound 118]	3.97	–
CN(O)C(=O)c1cc(F)c(F)cc1NC(=O)c1ccc(-n2ccnc2)nn1 [Compound 147]	5.25	–
CC(C)OC(=O)c1cc(F)ccc1NC(=O)c1ccc(-n2ccnc2)nn1 [Compound 25]	0.805	–
COC(=O)c1c(F)ccc(F)c1NC(=O)c1ccc(-n2ccnc2)nn1 [Compound 3]	10.2	–
CCOC(=O)c1nc(C)ccc1NC(=O)c1ccc(-n2ccnc2)nn1 [Compound 30]	0.149	–
COc1cc(C(=O)O)c(NC(=O)c2ccc(-n3ccnc3)nn2)cc1F [Compound 170]	11	–
COC(=O)c1cccc(C)c1NC(=O)c1ccc(-n2ccnc2)nn1 [Compound 91]	~5.07	–
COC(=O)c1cc(OC)c(Cl)cc1NC(=O)c1ccc(-n2ccnc2)nn1 [Compound 57]	< 0.0195	–
COC(=O)c1ncccc1NC(=O)c1ccc(-n2ccnc2)nn1 [Compound 5]	1.24	–
COC(=O)c1cc(Cl)ccc1NC(=O)c1ccc(-n2ccnc2)nn1 [Compound 106]	0.346	–
COC(=O)c1cc2c(cc1NC(=O)c1ccc(-n3ccnc3)nn1)OCO2 [Compound 98]	2.68	–
O=c1oc(-c2ccc(-n3ccnc3)nn2)nc2ccc(S(F)(F)(F)(F)F)cc12 [Compound 161]	> 20	–
Cc1ccc(NC(=O)c2ccc(-n3ccnc3)nn2)c(C(=O)O)c1 [Compound 89]	> 20	–
O=C(Nc1cc(F)c(F)cc1C(=O)NO)c1ccc(-n2ccnc2)nn1 [Compound 150]	12.2	–
Cc1cc(NC(=O)c2ccc(-n3ccnc3)nn2)c(C(N)=O)cc1C [Compound 125]	9.62	–
CCOC(=O)C1=C(NC(=O)c2ccc(-n3ccnc3)nn2)CCCCC1 [Compound 120]	> 50	–
Cc1cc2nc(-c3ccc(-n4ccnc4)nn3)oc(=O)c2cc1F [Compound 39]	0.0308	–
O=C(Nc1cc(F)c(C(F)(F)F)cc1C(=O)O)c1ccc(-n2ccnc2)nn1 [Compound 80]	3.97	–
COC(=O)c1nc(OC)ccc1NC(=O)c1ccc(-n2ccnc2)nn1 [Compound 74]	1.36	–

SMILES	EC50 [1, 6] [µM]	also measured
CCc1ccc(NC(=O)c2ccc(-n3ccnc3)nn2)c(C(=O)OC)c1 [Compound 20]	0.418	–
COC(=O)c1cc2[nH]ncc2cc1NC(=O)c1ccc(-n2ccnc2)nn1 [Compound 117]	~2.57	–
CCOC(=O)C1=C(NC(=O)c2ccc(-n3ccnc3)nn2)CCOC1 [Compound 128]	4.35	–
CCOC(=O)C1=C(NC(=O)c2ccc(-n3ccnc3)nn2)CCCC1 [Compound 112]	1.5	–
COC(=O)c1n[nH]cc1NC(=O)c1ccc(-n2ccnc2)nn1 [Compound 123]	2.99	–
CCOC(=O)C1=C(NC(=O)c2ccc(-n3ccnc3)nn2)CCC(F)(F)C1 [Compound 131]	3.48	–
O=C(Nc1cc2ccccc2cc1C(=O)O)c1ccc(-n2ccnc2)nn1 [Compound 78]	4.44	–
CCOC(=O)C1=C(NC(=O)c2ccc(-n3ccnc3)nn2)COCC1 [Compound 129]	10.7	–
Cc1cc(C(=O)O)c(NC(=O)c2ccc(-n3ccnc3)nn2)cc1F [Compound 172]	1.01	–
COC(=O)c1cc(O)ccc1NC(=O)c1ccc(-n2ccnc2)nn1 [Compound 109]	8.95	–
CCOC(=O)c1ccccc1NC(=O)c1ccc(-n2ccnc2)nn1 [Compound 64]	0.926	–
COC(=O)c1cc(C2CC2)ccc1NC(=O)c1ccc(-n2ccnc2)nn1 [Compound 32]	0.359	–
CC(C)COC(=O)c1ccccc1NC(=O)c1ccc(-n2ccnc2)nn1 [Compound 22]	0.895	–
COC(=O)c1cc(C#N)c(F)cc1NC(=O)c1ccc(-n2ccnc2)nn1 [Compound 55]	0.221	–
COC(=O)c1ccc(C)cc1NC(=O)c1ccc(-n2ccnc2)nn1 [Compound 15]	0.294	–
COC(=O)c1nc(Br)c(F)cc1NC(=O)c1ccc(-n2ccnc2)nn1 [Compound 43]	0.142	–
CC(C)OC(=O)c1ccccc1NC(=O)c1ccc(-n2ccnc2)nn1 [Compound 95]	1.7	–
CCOC(=O)C1=C(NC(=O)c2ccc(-n3ccnc3)nn2)C2CCC1O2 (stereo not drawn) [Compound 155]	> 50	–
COC(=O)c1cc(F)c(C)nc1NC(=O)c1ccc(-n2ccnc2)nn1 [Compound 149]	30.1	–
O=c1oc(-c2ccc(-n3ccnc3)nn2)nc2cc3c(cc12)OCCO3 [Compound 139]	2.52	–

SMILES	EC50 [1, 6] [µM]	also measured
COC(=O)c1ccc(C)c(C)c1NC(=O)c1ccc(-n2ccnc2)nn1 [Compound 6]	~2.76	–
Cc1noc(-c2ccccc2NC(=O)c2ccc(-n3ccnc3)nn2)n1 [Compound 7]	> 50	–
CCOC(=O)c1c(F)ccc(F)c1NC(=O)c1ccc(-n2ccnc2)nn1 [Compound 143]	9.71	–
O=C(Nc1cc(F)c(Br)nc1C(=O)O)c1ccc(-n2ccnc2)nn1 [Compound 177]	> 20	–
COC(=O)c1cc2c(cc1NC(=O)c1ccc(-n3ccnc3)nn1)CCCC2 [Compound 114]	4.35	–
CCOC(=O)c1cc2c(nc1NC(=O)c1ccc(-n3ccnc3)nn1)CCN(C)C2 [Compound 116]	3.46	–
COC(=O)c1ccc(C2CC2)cc1NC(=O)c1ccc(-n2ccnc2)nn1 [Compound 31]	0.206	–
COC(=O)c1ccccc1NC(=O)c1ccc(-n2cnc(C#N)c2)nn1 [Compound 92]	~5.26	–
COC(=O)c1cc(Cl)c(Cl)cc1NC(=O)c1ccc(-n2ccnc2)nn1 [Compound 34]	0.0726	–
COC(=O)c1cc(Cl)c(Br)c(F)c1NC(=O)c1ccc(-n2ccnc2)nn1 [Compound 60]	0.0622	–
COC(=O)c1cc(OC)ccc1NC(=O)c1ccc(-n2ccnc2)nn1 [Compound 14]	0.288	–
COC(=O)c1cc(Cl)c(C)nc1NC(=O)c1ccc(-n2ccnc2)nn1 [Compound 47]	0.282	–
COC(=O)c1ccc(Cl)cc1NC(=O)c1ccc(-n2ccnc2)nn1 [Compound 17]	0.312	–
COC(=O)c1cc(O)c(F)cc1NC(=O)c1ccc(-n2ccnc2)nn1 [Compound 142]	> 50	–
COC(=O)C1=C(NC(=O)c2ccc(-n3ccnc3)nn2)CC(C)(C)CC1 [Compound 127]	7.3	–
O=c1oc(-c2ccc(-n3ccnc3)nn2)nc2cc(Cl)c(F)cc12 [Compound 36]	0.0403	–
COC(=O)c1cc(F)ccc1NC(=O)c1ccc(-n2ccnc2)nn1 [Compound 13]	0.249	–
N=C(N)NCCC[C@H](NC(=O)c1cc(F)c(F)cc1NC(=O)c1ccc(-n2ccnc2)nn1)C(N)=O [Compound 124]	8.08	–

Reference: patent publication US11701364B2, “Agonists of stimulator of interferon genes sting” (The Scripps Research Institute, priority 2018, dated 2023)
